Columns and labels:
[1] = biological target: T1, Acetylcholinesterase (Rattus norvegicus, UniProt P37136); experiment: Inhibition of AChE from rat cortex by Ellman's method
T1 sequence (P37136 whole entry): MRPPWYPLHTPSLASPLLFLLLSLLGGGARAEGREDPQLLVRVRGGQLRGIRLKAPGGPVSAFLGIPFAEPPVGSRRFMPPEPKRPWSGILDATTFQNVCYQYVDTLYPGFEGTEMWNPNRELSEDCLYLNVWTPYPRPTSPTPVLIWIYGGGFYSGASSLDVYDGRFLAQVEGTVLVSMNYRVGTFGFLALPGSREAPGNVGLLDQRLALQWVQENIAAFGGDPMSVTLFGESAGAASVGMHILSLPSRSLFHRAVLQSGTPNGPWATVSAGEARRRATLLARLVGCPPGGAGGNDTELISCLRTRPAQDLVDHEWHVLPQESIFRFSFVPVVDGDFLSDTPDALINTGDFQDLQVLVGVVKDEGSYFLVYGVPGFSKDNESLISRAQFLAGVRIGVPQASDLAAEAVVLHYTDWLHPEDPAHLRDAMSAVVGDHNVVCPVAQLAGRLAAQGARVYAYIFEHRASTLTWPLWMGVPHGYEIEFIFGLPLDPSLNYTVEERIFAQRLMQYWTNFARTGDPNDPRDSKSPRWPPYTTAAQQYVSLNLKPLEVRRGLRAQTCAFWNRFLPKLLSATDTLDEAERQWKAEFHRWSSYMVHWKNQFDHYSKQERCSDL

[2] = biological target: Butyrylcholinesterase (Rattus norvegicus, UniProt Q9JKC1); experiment: Inhibition of BuChE from rat serum by Ellman's method
[3] = biological target: cGMP-specific 3',5'-cyclic phosphodiesterase (Homo sapiens, UniProt O76074); experiment: Inhibition of PDE5A1 (unknown origin) by immobilized metal ion affinity-based fluorescence polarization
[4] = biological target: cGMP-dependent 3',5'-cyclic phosphodiesterase (Homo sapiens, UniProt O00408); experiment: Inhibition of PDE2A1 (unknown origin) by immobilized metal ion affinity-based fluorescence polarization
[5] = biological target: cGMP-inhibited 3',5'-cyclic phosphodiesterase 3A (Homo sapiens, UniProt Q14432); experiment: Inhibition of PDE3A (unknown origin) by immobilized metal ion affinity-based fluorescence polarization
Sequence of cGMP-inhibited 3',5'-cyclic phosphodiesterase 3A (Q14432 whole entry): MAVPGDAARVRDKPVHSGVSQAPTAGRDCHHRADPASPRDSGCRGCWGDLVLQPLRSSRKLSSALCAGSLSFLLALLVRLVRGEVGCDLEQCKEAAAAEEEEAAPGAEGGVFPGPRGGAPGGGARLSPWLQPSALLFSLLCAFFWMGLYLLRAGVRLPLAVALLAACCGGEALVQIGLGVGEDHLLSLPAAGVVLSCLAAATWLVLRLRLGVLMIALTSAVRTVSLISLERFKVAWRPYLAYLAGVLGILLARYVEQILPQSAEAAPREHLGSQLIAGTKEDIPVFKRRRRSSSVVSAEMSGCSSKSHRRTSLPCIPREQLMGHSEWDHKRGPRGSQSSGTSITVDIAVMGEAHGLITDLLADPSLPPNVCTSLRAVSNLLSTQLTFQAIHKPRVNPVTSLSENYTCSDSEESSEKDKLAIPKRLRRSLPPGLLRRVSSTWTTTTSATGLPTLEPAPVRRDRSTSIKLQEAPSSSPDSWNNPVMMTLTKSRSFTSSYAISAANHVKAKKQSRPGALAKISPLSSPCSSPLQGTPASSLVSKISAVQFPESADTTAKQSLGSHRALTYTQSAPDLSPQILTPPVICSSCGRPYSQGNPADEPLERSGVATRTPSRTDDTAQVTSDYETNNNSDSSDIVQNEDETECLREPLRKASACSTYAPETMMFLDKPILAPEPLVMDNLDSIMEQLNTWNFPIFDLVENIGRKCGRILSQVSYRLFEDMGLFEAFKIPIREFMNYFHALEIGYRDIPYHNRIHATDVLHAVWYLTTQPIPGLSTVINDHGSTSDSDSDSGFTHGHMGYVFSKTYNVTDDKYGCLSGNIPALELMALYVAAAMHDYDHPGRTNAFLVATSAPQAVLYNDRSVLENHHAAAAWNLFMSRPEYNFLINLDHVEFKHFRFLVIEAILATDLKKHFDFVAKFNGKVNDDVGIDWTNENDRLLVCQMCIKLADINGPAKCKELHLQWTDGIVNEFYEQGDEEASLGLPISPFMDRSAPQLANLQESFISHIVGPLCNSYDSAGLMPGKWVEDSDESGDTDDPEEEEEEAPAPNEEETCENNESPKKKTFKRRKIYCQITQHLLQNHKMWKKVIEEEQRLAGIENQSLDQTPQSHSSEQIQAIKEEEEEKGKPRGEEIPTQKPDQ

[6] = biological target: Cone cGMP-specific 3',5'-cyclic phosphodiesterase subunit alpha' (Homo sapiens, UniProt P51160); experiment: Inhibition of PDE6C (unknown origin) by immobilized metal ion affinity-based fluorescence polarization
[7] = biological target: High affinity 3',5'-cyclic-AMP phosphodiesterase 7A (Homo sapiens, UniProt Q13946); experiment: Inhibition of PDE7A (unknown origin) by immobilized metal ion affinity-based fluorescence polarization
Sequence of High affinity 3',5'-cyclic-AMP phosphodiesterase 7A (Q13946 whole entry): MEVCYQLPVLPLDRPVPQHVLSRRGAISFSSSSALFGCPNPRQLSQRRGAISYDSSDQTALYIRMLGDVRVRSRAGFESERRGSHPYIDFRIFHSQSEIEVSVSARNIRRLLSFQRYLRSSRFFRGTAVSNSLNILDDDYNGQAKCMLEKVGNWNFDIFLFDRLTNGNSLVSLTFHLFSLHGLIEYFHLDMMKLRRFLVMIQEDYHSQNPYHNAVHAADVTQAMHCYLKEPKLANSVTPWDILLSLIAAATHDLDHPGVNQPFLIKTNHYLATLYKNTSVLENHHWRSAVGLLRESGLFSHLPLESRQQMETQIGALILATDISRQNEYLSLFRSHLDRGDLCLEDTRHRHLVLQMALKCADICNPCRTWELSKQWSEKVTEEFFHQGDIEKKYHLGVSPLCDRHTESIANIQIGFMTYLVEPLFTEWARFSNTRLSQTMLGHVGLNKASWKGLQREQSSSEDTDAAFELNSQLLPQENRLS

[8] = biological target: High affinity cGMP-specific 3',5'-cyclic phosphodiesterase 9A (Homo sapiens, UniProt O76083); experiment: Inhibition of PDE9A2 (unknown origin) by immobilized metal ion affinity-based fluorescence polarization
Sequence of High affinity cGMP-specific 3',5'-cyclic phosphodiesterase 9A (O76083 whole entry): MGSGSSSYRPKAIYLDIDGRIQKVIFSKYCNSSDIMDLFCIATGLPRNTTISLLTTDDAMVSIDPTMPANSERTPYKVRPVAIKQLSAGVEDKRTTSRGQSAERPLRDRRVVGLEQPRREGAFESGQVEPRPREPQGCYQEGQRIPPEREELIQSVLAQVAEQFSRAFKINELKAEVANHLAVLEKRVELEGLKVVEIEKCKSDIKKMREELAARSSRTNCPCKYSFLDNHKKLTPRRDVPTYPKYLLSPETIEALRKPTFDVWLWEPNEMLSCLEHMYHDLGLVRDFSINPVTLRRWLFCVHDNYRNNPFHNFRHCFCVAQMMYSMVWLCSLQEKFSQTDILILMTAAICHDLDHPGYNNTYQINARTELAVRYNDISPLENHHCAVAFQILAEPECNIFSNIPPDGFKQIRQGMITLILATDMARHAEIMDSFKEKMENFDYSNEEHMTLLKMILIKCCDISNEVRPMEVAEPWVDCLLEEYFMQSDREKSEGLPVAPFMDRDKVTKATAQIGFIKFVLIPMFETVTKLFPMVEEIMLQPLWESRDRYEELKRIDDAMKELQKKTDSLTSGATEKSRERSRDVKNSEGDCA

[9] = Inhibition of PDE4D3 (unknown origin) by immobilized metal ion affinity-based fluorescence polarization; design: species or system Homo sapiens
[10] = biological target: T2, Acetylcholinesterase (Homo sapiens, UniProt P22303); experiment: Inhibition of AChE (unknown origin)
T2 sequence (P22303 whole entry): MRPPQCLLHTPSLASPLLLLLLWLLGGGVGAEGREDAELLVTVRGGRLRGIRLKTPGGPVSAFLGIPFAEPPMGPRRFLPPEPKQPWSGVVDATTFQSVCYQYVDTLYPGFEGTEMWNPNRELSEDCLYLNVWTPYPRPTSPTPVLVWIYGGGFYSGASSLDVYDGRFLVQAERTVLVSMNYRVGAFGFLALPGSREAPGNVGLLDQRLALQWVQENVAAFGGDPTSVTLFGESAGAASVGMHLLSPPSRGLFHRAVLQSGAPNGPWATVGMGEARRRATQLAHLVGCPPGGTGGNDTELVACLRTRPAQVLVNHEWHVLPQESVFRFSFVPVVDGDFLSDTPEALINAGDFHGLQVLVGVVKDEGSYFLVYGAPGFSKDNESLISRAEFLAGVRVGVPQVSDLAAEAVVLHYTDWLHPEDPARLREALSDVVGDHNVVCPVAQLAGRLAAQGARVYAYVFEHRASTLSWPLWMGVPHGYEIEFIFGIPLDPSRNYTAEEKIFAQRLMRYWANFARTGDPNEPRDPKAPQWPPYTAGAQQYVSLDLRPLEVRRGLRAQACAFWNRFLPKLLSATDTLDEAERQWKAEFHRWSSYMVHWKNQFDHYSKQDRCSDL

[11] = biological target: T3, Beta-secretase 1 (Homo sapiens, UniProt P56817); experiment: Inhibition of BACE-1 (unknown origin)
T3 sequence (P56817 whole entry): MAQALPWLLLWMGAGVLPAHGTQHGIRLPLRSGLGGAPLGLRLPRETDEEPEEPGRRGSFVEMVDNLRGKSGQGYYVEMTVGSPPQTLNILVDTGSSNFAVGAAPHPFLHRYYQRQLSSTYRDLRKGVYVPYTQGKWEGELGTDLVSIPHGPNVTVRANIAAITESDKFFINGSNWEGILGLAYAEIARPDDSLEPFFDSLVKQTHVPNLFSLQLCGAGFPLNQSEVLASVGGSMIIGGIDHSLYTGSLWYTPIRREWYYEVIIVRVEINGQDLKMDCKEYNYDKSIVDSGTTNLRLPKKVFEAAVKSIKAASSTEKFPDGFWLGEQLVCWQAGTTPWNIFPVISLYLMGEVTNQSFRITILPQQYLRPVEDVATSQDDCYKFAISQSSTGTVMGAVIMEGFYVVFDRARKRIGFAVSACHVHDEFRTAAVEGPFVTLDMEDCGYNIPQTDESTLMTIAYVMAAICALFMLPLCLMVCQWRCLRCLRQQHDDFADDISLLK

[12] = biological target: T4, Acetylcholinesterase (Electrophorus electricus, UniProt O42275); experiment: Inhibition of electric eel AChE using acetylthiocholine as substrate measured for 3.2 mins by Ellman's method
T4 sequence (O42275 whole entry): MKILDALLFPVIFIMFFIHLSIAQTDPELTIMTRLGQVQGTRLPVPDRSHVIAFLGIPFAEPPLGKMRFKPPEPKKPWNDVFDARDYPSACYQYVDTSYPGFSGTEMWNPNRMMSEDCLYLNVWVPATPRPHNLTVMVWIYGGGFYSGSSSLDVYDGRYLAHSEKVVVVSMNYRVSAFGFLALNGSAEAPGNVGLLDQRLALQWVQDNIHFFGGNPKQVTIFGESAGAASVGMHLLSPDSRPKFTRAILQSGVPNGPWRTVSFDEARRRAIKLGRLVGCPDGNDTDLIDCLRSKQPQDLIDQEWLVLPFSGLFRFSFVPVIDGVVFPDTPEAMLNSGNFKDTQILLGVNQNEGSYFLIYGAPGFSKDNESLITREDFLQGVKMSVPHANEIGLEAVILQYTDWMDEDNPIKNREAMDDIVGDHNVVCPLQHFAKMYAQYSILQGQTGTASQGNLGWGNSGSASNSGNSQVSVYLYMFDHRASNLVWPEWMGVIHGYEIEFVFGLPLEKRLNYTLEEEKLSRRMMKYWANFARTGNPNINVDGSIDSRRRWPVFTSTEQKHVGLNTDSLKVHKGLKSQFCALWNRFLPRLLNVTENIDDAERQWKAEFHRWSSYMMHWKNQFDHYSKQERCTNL

[13] = biological target: T2, Acetylcholinesterase; experiment: Inhibition of recombinant human AChE using acetylthiocholine as substrate by UV-visible absorption method
[14] = biological target: T3, Beta-secretase 1; experiment: Inhibition of BACE-1 (unknown origin) after 60 mins by FRET assay
[15] = biological target: T5, Amine oxidase [flavin-containing] A (Homo sapiens, UniProt P21397); experiment: Irreversible inhibition of MAOA (unknown origin)
T5 sequence (P21397 whole entry): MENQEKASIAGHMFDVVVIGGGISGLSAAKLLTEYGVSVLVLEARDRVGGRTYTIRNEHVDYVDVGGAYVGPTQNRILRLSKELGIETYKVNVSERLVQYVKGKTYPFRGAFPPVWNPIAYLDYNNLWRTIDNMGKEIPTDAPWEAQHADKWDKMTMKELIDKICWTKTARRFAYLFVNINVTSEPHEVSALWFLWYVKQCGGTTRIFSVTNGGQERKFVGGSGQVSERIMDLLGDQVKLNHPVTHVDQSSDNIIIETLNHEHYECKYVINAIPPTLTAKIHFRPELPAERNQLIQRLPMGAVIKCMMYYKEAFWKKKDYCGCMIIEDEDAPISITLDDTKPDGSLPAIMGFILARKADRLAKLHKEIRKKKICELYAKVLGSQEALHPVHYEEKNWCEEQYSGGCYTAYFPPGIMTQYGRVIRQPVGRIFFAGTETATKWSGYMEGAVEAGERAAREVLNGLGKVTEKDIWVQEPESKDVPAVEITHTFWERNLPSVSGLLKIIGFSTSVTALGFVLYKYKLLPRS

[16] = biological target: T6, Amine oxidase [flavin-containing] B (Homo sapiens, UniProt P27338); experiment: Irreversible inhibition of MAOB (unknown origin)
T6 sequence (P27338 whole entry): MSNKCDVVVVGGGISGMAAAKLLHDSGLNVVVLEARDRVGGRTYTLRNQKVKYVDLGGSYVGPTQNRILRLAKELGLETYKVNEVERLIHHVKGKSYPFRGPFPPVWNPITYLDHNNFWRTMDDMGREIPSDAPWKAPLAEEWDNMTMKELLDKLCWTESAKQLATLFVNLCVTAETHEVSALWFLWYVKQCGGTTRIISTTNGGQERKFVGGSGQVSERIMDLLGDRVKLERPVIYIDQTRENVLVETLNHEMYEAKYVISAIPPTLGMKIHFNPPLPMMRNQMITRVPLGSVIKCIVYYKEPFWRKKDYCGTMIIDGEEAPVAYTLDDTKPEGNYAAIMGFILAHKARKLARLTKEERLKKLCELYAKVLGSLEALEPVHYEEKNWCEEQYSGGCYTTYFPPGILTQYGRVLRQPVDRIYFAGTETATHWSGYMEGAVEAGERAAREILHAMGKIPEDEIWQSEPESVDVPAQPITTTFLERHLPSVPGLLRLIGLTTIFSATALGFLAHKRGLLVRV

[17] = biological target: T2, Acetylcholinesterase; experiment: Inhibition of recombinant human AChE
[18] = biological target: T3, Beta-secretase 1; experiment: Inhibition of recombinant human BACE-1
[19] = test system: CHO-K1; experiment: Cytotoxicity against CHOK1 cells assessed as reduction in cell viability by MTT assay; assay type: cell-based; settings: Cricetulus griseus
[20] = test system: HepG2; experiment: Cytotoxicity against human HepG2 cells assessed as reduction in cell viability by MTT assay; assay type: cell-based
[21] = biological target: T5, Amine oxidase [flavin-containing] A; experiment: Mixed type inhibition of MAOA (unknown origin)
[22] = biological target: T6, Amine oxidase [flavin-containing] B; experiment: Mixed type inhibition of MAOB (unknown origin)
[23] = biological target: T2, Acetylcholinesterase; experiment: Irreversible inhibition of AChE (unknown origin)
[24] = biological target: T3, Beta-secretase 1; experiment: Irreversible inhibition of BACE-1 (unknown origin)
[25] = biological target: Cholinesterase (Equus caballus, UniProt P81908); experiment: Inhibition of equine serum BChE using butyrylthiocholine iodide as substrate preincubated for 10 mins followed by substrate addition by Ellman's method
[26] = biological target: Glutamate [NMDA] receptor; experiment: Displacement of [3H]-MK-801 from NMDA receptor (unknown origin) by scintillation counting method; assay type: protein-complex assay, Homo sapiens
[27] = biological target: Glutamate [NMDA] receptor; experiment: Displacement of [3H]-ifenprodil from NMDA receptor (unknown origin) by scintillation counting method; assay type: protein-complex assay, Homo sapiens
[28] = biological target: Glutamate [NMDA] receptor; experiment: Inhibition of NMDA receptor (unknown origin); assay type: protein-complex assay, Homo sapiens
[29] = biological target: Amyloid-beta precursor protein (Homo sapiens) (UniProt P05067); experiment: Inhibition of beta amyloid (unknown origin) self-induced aggregation relative to control; settings: concentration not given here
Sequence of Amyloid-beta precursor protein (Homo sapiens) (P05067 whole entry): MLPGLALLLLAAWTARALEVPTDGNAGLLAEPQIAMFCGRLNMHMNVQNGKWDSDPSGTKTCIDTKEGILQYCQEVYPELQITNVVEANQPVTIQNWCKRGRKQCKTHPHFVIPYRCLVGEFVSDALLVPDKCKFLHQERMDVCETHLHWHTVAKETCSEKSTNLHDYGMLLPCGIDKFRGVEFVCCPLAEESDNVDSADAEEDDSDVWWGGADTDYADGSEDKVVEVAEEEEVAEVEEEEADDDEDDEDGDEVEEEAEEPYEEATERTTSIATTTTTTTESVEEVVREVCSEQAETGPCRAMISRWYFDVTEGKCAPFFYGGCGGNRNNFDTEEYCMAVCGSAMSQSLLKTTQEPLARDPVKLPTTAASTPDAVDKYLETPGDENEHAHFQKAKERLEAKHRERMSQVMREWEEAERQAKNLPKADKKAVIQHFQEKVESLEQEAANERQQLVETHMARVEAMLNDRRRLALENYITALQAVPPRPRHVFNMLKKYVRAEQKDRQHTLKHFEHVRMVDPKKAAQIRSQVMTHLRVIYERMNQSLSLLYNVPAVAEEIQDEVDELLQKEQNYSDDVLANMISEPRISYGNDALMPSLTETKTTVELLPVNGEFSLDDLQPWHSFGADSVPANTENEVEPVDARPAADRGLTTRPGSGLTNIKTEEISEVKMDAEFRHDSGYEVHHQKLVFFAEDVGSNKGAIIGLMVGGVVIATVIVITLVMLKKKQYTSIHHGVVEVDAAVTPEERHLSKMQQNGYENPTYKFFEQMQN

[30] = biological target: T4, Acetylcholinesterase; experiment: Inhibition of electric eel AChE using acetylthiocholine chloride as substrate preincubated for 15 mins followed by substrate addition
[31] = Oral bioavailability in Alzheimer's disease patient at 2 mg/ml; assay type: ADME, organism-based; settings: human, in vivo
[32] = Half life in Alzheimer's disease patient at 2 mg/ml, po; assay type: ADME; settings: human, in vivo
[33] = Drug excretion in Alzheimer's disease patient urine at 2 mg/ml, po; assay type: ADME, tissue-based; settings: human, read-out: Drug excretion
[34] = biological target: Amyloid-beta precursor protein (Homo sapiens) (UniProt P05067); experiment: Inhibition of beta amyloid (unknown origin) self-induced aggregation at 10 uM relative to control

For `O=C1[C@H]2Cc3c([nH]c4ccccc34)[C@@H](c3ccc4c(c3)OCO4)N2C(=O)CN1CCC1CCN(Cc2ccccc2)CC1`, the IC50 [1] was 0.032 µM, the IC50 [2] was 3.88 µM and the IC50 [3] was 1.53 µM. The IC50 [4] was > 100 µM, the IC50 [5] was > 100 µM and the IC50 [6] was > 100 µM. The IC50 [7] was > 100 µM, the IC50 [8] was > 100 µM and the IC50 [9] was > 100 µM.
`OC(CNCc1cccc(OCc2ccccc2)c1)Cn1cc(Br)c2cc(Br)ccc21` (stereo not given) gave an IC50 [10] of 9.1 µM and an IC50 [11] of 0.97 µM.
In the case of `Cc1cc(=O)oc2cc(OCCN3CCN(CC(=O)Nc4c5c(nc6ccccc46)CCCC5)CC3)ccc12`, the IC50 [12] is reported as 92 µM.
`COc1ccc(CNC(=O)C2CCN(C(=O)c3ccccc3)CC2)cc1OC` showed an IC50 [13] of 0.00411 µM and an IC50 [14] of 0.0183 µM.
In the case of `COc1ccc2[nH]c3nc4c(c(N)c3c2c1)CCCC4`, the IC50 [15] is reported as 0.49 µM, the IC50 [16] is reported as 53.9 µM and the IC50 [17] is reported as 1.5 µM. It also gave an IC50 [18] of 2.4 µM, an IC50 [19] of 5.5 µM and an IC50 [20] of 1.22 µM.
`C#CCN(C)Cc1ccc(O)c2ncccc12` gave an IC50 [21] of 57 µM, an IC50 [22] of 1.5 µM and an IC50 [23] of 1.8 µM. The IC50 [24] was 1.6 µM, the IC50 [15] was 6.2 µM and the IC50 [16] was 10.2 µM.
For `CCN1CCc2c(c3ccccc3n2CCC(=O)N2c3ccccc3Sc3ccccc32)C1`, the IC50 [25] was 0.52 µM, the IC50 [26] was 14.6 µM and the IC50 [27] was 13.4 µM.
For `Cc1ccc2[nH]c3c(c2c1)CN(CCCCCN1CCc2[nH]c4ccc(C)cc4c2C1)CC3`, the IC50 [28] was 11 µM, the IC50 [10] was 0.195 µM and the inhibition [29] was 67%.
For `COc1ccc(/C=C2\COc3cc(OCCCN4CCCCC4)ccc3C2=O)cc1`, the IC50 [30] was 3.94 µM.
In the case of `CN1CC(=O)N2[C@H](c3ccc4c(c3)OCO4)c3[nH]c4ccccc4c3C[C@@H]2C1=O`, the IC50 [1] is reported as 26.2 µM.
With `COc1cc(/C=C/C(O)=C/C(=O)/C=C/c2ccc(OCc3ccccc3)cc2)ccc1O` the IC50 [11] was 2.5 µM.
With `CC12CC3CC(C)(C1)CC(N)(C3)C2` [MEMANTINE] the bioavailability [31] was 100%, the half-life [32] was 60 to 100 h and the dose excreted [33] was 48%.
With `C#CCN(C)Cc1cc2cc(OCCCC3CCN(Cc4ccccc4)CC3)ccc2n1C` the IC50 [10] was 0.35 µM and the inhibition [34] was 47.8%.

— ChEMBL document CHEMBL4350982, “Multi-target design strategies for the improved treatment of Alzheimer's disease” (Eur J Med Chem, 2019)
